pKd: −log10 of the molar value.
Biological target: T1, uterine OT receptors (Rattus norvegicus, UniProt P70536)
T1 construct: a crude membrane preparation of uteri; from tissue; host or cells: uterus of DES-treated rats, crude membranes
T1 sequence (P70536 1-388): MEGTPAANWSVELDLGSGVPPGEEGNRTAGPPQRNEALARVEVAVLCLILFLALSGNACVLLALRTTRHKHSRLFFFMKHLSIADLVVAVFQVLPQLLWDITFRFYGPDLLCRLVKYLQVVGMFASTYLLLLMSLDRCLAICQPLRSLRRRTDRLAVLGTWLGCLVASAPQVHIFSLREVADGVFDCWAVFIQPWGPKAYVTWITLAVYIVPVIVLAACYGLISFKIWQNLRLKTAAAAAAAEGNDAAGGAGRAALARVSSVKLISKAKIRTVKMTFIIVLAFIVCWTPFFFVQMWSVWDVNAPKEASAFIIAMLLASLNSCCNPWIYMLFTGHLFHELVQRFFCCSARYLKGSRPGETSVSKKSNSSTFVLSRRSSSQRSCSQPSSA
Assay: [3H]OT radioligand binding to uterine OT receptors, crude membrane preparation
Parameters: species or system rats
Settings: saturation binding assays; uterus

pKd: 9.15
Substance: [tyrosyl, 3,5-^3H]OT [[^3H]OT]

Source: patent EP0444898A1, “Cyclic hexapeptide oxytocin antagonists” (MERCK & CO. INC., priority 1990, dated 1991)
